Experimental findings from PMC11212260, “Next-generation neuropeptide Y receptor small-molecule agonists inhibit mosquito-biting behavior” (Parasites & Vectors, 2024) are described below.

“And” between values parts separate entries of the source, which are not always exact repeats. Equal values may be shown once. Read-outs that look alike come from different tables or passages of the source.

In one experiment the target is Ae. aegypti NPYLR7 (Aedes aegypti, UniProt U5N1H5). The experiment can be described thus: In vitro calcium (GCaMP6s) FLIPR assay in HEK293T cells transfected with NPYLR7. The class given is cell-based. Particulars: for activation at 100 µM: single replicate of the dose-response curve. The procedure: The in vitro screening assay was adapted from, and carried out at HD Biosciences (HDB, Shanghai) as follows: HEK293T (Thermo Fisher Scientific) cells were grown in Dulbecco’s modified Eagle medium (DMEM) (high glucose, with glutamine), 10% fetal bovine serum, 1% penicillin–streptomycin (Pen/Strep), seeded in a 75 cm^2 flask, and incubated at 37 °C and 5% CO2. Cells were transiently transfected with 1 μg of each plasmid expressing GCaMP6s (Addgene […]) (Chen et al., 2013), mouse Gqα15 (Addgene #40753) (Offermanns and Simon, 1995) and Ae. aegypti NPYLR7 (Addgene #52392) (Duvall et al. 2019) using Lipofectamine 2000 (Invitrogen) in 4 ml of Opti-MEM (Invitrogen). This mixture was added to a plate after 20 min and incubated for 6–8 h. Cells were then trypsinized, resuspended in phenol-free media, and plated in a 384-well plate (Greiner Bio-One) at a density of 20,000 cells per 40 μl, and incubated overnight (37 °C, 5% CO2). Cells were imaged directly in phenol-free media. Plates were loaded into a Molecular Devices fluorescence imaging plate reader (FLIPR) with an excitation wavelength of 470–495 nm and an emitted wavelength of 515–575 nm. Plates were imaged every second for 5 min. After 30 s of baseline fluorescence recording, 10 μl of the test compound in reading buffer [Hank’s Balanced Salt Solution (Gibco) + 20 mM HEPES (Sigma-Aldrich)] was added. Concentrations tested ranged from 0 to 100 μM. Data were collected in raw fluorescence units (RFU).
Chain of Ae. aegypti NPYLR7 (U5N1H5 entry or part of it): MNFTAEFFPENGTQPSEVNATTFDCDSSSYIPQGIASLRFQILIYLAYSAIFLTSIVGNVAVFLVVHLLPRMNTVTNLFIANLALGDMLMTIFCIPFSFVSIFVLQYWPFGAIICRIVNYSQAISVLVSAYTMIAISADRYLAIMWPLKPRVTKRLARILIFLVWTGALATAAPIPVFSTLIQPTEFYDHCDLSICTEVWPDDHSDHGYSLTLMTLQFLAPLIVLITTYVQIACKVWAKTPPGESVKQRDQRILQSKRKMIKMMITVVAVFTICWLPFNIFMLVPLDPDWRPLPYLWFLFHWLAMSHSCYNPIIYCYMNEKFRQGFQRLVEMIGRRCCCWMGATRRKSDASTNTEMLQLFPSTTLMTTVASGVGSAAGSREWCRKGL
Each test plate included replicates of 10 μM FMRFa3 (H‐Ala‐Gly‐Gln‐Gly‐Phe‐Met‐Arg‐Phe‐NH2), an Ae. aegypti neuropeptide agonist of NPYLR7 used to calculate the hundred percent effect (HPE). The zero percent effect (ZPE) control was calculated as a response to buffer alone. The Z′ factor was calculated for each plate by Z^′=1-3σHPE+3σZPE/|μHPE-μZPE| . Plates with Z′ < 0.5 were excluded from analysis. Raw fluorescence units (RFU) were converted to percent effect relative to the average of the ZPE and HPE. Percent effect = (sample luminescence − average ZPE)/(average HPE − average ZPE)×100. […] Each replicate was plotted as percent effect versus log[concentration], and replicates with maximal responses between 20 and 250% were used for EC50 calculations. Relative EC50 was calculated using an [Agonist] versus response–variable slope four-parameter model where Y=Bottom+(X^Hillslope)∗(Top-Bottom)/(X^HillSlope+EC50^HillSlope) . For compounds with multiple replicates, the relative EC50 of each replicate was averaged.

For experiment [1], the system named is Aedes aegypti (Orlando strain) females. The experiment can be described thus: Host-seeking screening assay (miniport olfactometer). It is filed as in vivo. Particulars: fed 1 μM in saline, tested 48 h post-meal; for Host-seeking relative to saline (test compound % host-seeking/average matched saline % host-seeking): individual replicates; for Attraction (relative to saline): per-compound value of Fig. 3C. The procedure:
Groups of 60–150 females were placed in bucket cages with a diameter of 21.6 cm and height of 16.5 cm (VWR) and fasted with access to water for 24 h prior to feeding. Meals were delivered to females via Glytube membrane feeders as described previously. Meals consisted of 1.5 ml sheep blood (HemoStat Laboratories), saline (400 mM NaHCO3 + dih2O), or saline and test compound. Lyophilized compounds were stored at room temperature until use. High-concentration stocks (30 mM in 100% dimethyl sulfoxide [DMSO]) (Sigma-Aldrich) were stored at −20 °C and diluted in saline immediately prior to feeding. Once prepared, meals and glycerol heating elements were warmed in a 42 °C water bath for 15 min to provide warmth to attract mosquitos to feed. ATP (1 mM final concentration) and test compounds (1 μM final concentration) were added prior to placing the meal on top of the mesh on the cage containing female mosquitos. Females were allowed 15–20 min to feed to repletion. Abdominal engorgement was scored by eye and confirmed by weighing females to ensure full feeding (Data S1). […] Females were returned to their original cage with a diH2O wick for 48 h prior to behavioral testing. The lethality of each compound was measured by counting the number of dead females in each cage 24 h post-meal.
Miniport olfactometers were fabricated in-house as described previously. Information regarding design, construction, and use can be found at https://github.com/VosshallLab/Miniport-Construction. Miniport canisters consisted of a 6″ × 3″ × 3″ acrylic tube with a mesh screen to allow for air flow. Groups of 10–20 females were loaded into canisters 24 h post-meal. Females were left in canisters overnight to acclimate with two cotton balls soaked in diH20 to prevent desiccation. Behavior trials began 48 h post-meal. Canisters were randomly assigned to attraction traps 1–4 and given 5 min to acclimate. The stimulus end of the trap was connected to a flowmeter that supplied 5% CO2 at a rate of 30 ml/min. Thirty seconds of CO2 flow was supplied to activate females prior to opening the sliding door. Once opened, the sliding door gave females access to the attraction trap baited with a human-scented nylon stocking previously worn by the same experimenter for 8–10 h to collect body odor and stored in a plastic bag at −20 °C until use. After 5 min, the sliding door was closed and attraction was scored as mosquitoes in the attraction trap/total number of mosquitoes. For each experiment data were normalized to the matched average saline attraction from the same experiment (% attracted/average saline attraction). Any dead mosquitoes were excluded from the analysis. Non-fed females and blood-fed females served as environmental control groups while the saline-fed females served as the vehicle control each day. If non-fed or saline-fed females were less than 50% attracted or if blood-fed females were more than 20% attracted behavioral trials were halted and all data from that experimental day were discarded.

The mark [2] stands for this setting: EC50 of the individual assay date/plate (assay date), read-out: EC50.
[3] abbreviates: Figure 1E Summary, second list (n = 48), read-out: Reported Metric (Summary list).
Where [4] appears, read: relative EC50, percent effect relative to 10 μM FMRFa3, read-out: EC50.
The mark [5] stands for this setting: sheet Figure 3C, unit inferred, read-out: EC50.
Setting [6] is: summary EC50 per compound (mean over assay dates), the unit is taken from the neighbouring EC50 (uM) column, read-out: Reported Metric.
Setting [7] is: Figure 1E Summary, third list (n = 39), read-out: Reported Metric (Summary list).

Consider `CCOc1cc2c(C)nc(NC(=N)N)nc2cc1OCc1ccccc1` [TDI-013758], for which the EC50 at Ae. aegypti NPYLR7 (setting [2]), on Ae. aegypti NPYLR7 (setting [3]), at Ae. aegypti NPYLR7 (setting [4]), at Ae. aegypti NPYLR7 (setting [5]) and on Ae. aegypti NPYLR7 (setting [6]) was 8.53 µM throughout. For the same molecule, the activation at 100 µM on Ae. aegypti NPYLR7 (HEK-293T, normalised response) turned out to be 80.6%. In experiment [1] (listed as TDI-03758), the “Host-seeking relative to saline (test compound % host-seeking/average matched saline % host-seeking)” value came to 1.17. Also, in experiment [1], the “Attraction (relative to saline)” value came out at 0.78.

On to `Cc1nc(NC(=N)N)nc2cc(OCC3CCOC3)ccc12` (stereo not drawn) [TDI-014174], for which the EC50 on Ae. aegypti NPYLR7 (setting [2]), on Ae. aegypti NPYLR7 (setting [3]), on Ae. aegypti NPYLR7 (setting [4]), at Ae. aegypti NPYLR7 (setting [5]) and at Ae. aegypti NPYLR7 (setting [6]) was 5.31 µM in each case. Besides, on Ae. aegypti NPYLR7 (HEK-293T, 3.7037 uM, single replicate, normalised response), the activation at 3.7037 µM was 42%. Besides, at Ae. aegypti NPYLR7 (HEK-293T, 33.3333 uM, single replicate, normalised response), the activation at 33.3333 µM was 92.2%. Also, the activation at 100 µM at Ae. aegypti NPYLR7 (HEK-293T, normalised response) is 102%. Also, in experiment [1] (listed as TDI-04174), the “Host-seeking relative to saline (test compound % host-seeking/average matched saline % host-seeking)” value is listed as 1.41. Also, the “Attraction (relative to saline)” value in experiment [1] came to 1.

As for `Cc1nc(NC(=N)N)nc2cc(OCc3cnccn3)ccc12` [TDI-014181], the EC50 on Ae. aegypti NPYLR7 (setting [2]), on Ae. aegypti NPYLR7 (setting [3]), at Ae. aegypti NPYLR7 (setting [4]), at Ae. aegypti NPYLR7 (setting [5]) and at Ae. aegypti NPYLR7 (setting [6]) was 6.21 µM throughout. In experiment [1], the “Attraction (relative to saline)” value is 0.975.

Turning to `CNc1nc(NC(=N)N)nc2cc(OCc3ccc(OC)cc3)c(OC)cc12` [TDI-014185], the EC50 at Ae. aegypti NPYLR7 (setting [2]), on Ae. aegypti NPYLR7 (setting [7]), on Ae. aegypti NPYLR7 (setting [4]), at Ae. aegypti NPYLR7 (setting [5]) and on Ae. aegypti NPYLR7 (setting [6]) was 0.0175 µM in each case. The activation at 0.0457 µM on Ae. aegypti NPYLR7 (HEK-293T, 0.0457 uM, single replicate, normalised response) was determined as 70.6%. At Ae. aegypti NPYLR7 (HEK-293T, 0.1372 uM, single replicate, normalised response), the activation at 0.1372 µM worked out at 69.2%. Also, on Ae. aegypti NPYLR7 (HEK-293T, 11.1111 uM, single replicate, normalised response), the activation at 11.1111 µM is 79.9%. The “Attraction (relative to saline)” value in experiment [1] worked out at 0.79.

`COc1ccc(COc2ccc3c(C)nc(NC(=N)N)nc3c2)cc1` [TDI-013000]: the EC50 at Ae. aegypti NPYLR7 (setting [7]) is 0.0277 µM; at Ae. aegypti NPYLR7 (Figure 1E summary value per compound, repeated on each replicate line, read-out: Reported Metric (EC50 summarised over assay dates)), 0.0277 µM; at Ae. aegypti NPYLR7 (fit per assay date/plate (c2), repeated on the replicate lines of one date, read-out: EC50), 0.0817 µM and 0.0282 µM; on Ae. aegypti NPYLR7 (setting [4]) it was 0.0277 µM; at Ae. aegypti NPYLR7 (summary value per compound, matches the mean of the EC50 (uM) values of the assay dates, column head prints no unit, Figure 1 Panel E, read-out: Reported Metric) it was 0.0277 µM. In experiment [1], the “Attraction (relative to saline)” value is recorded as 0.925.
